Experimental data reported in US7220824B1, “Integrin-mediated drug targeting” (Bayer Aktiengesellschaft, priority 2000, dated 2007).
Where two headings read alike, the source gives them in different places.

Assays:
[1] = test system: hemopoietic stem cells (bone marrow cells); test: CSF-induced proliferation of hemopoietic stem cells; format: cell-based, mice; conditions: Bone marrow cell, 168 h
Method: Bone marrow cells are flushed out of the femur of mice. 10^5 cells are incubated in McCoy 5A medium (0.3% agar) together with recombinant murine GM-CSF (Genzyme; parent cell colony formation) and the substances (10^−4 to 100 μg/ml) at 37° C. and 7% CO2. 7 days later, the colonies (<50 cells) and clusters (17–50 cells) are counted.

[2] = target: T1, αvβ3 receptor (αvβ3 from human A375 cells) (Homo sapiens, UniProt P05106+P06756); test: αvβ3 binding test (echistatin displacement, WGA SPA beads)
T1 construct: αvβ3 from human A375 cells was purified analogously to a procedure which was described by Wong et al; endogenous in cells; host or cells: human A375 cells; the receptor was purified from the cells and used detergent-solubilised (n-octyl-glucopyranoside)
T1 sequence (P06756 31-889 limits assumed): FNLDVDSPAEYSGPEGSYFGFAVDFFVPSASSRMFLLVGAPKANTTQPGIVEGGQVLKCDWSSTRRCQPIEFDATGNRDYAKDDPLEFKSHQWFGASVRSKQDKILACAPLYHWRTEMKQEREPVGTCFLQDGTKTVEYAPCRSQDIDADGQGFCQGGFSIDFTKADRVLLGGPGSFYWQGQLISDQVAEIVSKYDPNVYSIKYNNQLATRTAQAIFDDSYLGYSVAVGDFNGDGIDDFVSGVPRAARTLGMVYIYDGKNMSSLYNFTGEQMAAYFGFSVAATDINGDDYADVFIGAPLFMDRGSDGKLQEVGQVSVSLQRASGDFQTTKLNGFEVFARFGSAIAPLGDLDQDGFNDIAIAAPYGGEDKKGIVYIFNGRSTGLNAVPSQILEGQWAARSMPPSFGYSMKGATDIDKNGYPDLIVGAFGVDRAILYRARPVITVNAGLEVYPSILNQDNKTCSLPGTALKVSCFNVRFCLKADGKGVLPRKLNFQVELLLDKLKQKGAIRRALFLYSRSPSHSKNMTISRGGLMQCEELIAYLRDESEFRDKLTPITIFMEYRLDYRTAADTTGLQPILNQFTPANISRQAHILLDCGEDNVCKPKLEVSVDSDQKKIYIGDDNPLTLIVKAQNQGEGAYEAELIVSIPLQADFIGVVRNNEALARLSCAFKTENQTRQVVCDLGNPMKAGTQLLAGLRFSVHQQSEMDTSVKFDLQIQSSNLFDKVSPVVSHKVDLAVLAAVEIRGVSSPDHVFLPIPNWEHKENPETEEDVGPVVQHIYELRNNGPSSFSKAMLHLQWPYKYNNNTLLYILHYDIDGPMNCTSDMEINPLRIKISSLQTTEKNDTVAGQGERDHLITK
T1 sequence (P06756 891-1048 partner limits assumed): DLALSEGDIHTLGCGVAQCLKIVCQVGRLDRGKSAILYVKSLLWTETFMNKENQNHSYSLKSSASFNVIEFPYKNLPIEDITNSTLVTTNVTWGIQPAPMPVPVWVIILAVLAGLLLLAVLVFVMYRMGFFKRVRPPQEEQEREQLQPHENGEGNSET
T1 sequence (P05106 27-788): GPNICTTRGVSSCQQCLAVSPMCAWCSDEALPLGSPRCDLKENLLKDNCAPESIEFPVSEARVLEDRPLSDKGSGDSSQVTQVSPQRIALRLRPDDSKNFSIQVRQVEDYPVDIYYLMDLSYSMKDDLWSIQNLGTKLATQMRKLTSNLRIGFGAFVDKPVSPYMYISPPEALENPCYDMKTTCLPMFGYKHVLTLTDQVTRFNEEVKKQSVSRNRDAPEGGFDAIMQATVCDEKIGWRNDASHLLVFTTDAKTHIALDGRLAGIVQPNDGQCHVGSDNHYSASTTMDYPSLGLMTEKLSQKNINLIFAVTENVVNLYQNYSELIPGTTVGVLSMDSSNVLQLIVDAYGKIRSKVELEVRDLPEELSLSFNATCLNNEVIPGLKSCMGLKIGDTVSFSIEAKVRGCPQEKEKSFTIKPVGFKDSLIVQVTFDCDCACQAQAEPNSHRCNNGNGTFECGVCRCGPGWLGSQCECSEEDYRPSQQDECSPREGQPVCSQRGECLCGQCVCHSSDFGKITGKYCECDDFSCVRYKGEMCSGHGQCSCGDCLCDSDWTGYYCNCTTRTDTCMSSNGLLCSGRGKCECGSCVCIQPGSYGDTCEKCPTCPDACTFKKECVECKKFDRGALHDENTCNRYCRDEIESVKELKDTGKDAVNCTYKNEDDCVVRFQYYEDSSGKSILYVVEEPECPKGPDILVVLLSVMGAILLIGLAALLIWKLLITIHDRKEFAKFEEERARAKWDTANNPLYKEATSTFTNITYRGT
Method: αvβ3 from human A375 cells was purified analogously to a procedure which was described by Wong et al. (Molecular Pharmacology, 50, 529–537 (1996)). In each case, 10 μl of αvβ3 (5 ng) in TBS pH 7.6, 2 mM CaCl2, 1 mM MgCl2, 1% n-octyl-glucopyranoside (Sigma); 10 μl of test substance in TBS pH 7.6, 0.1% DMSO and 45 μl of TBS pH 7.6, 2 mM CaCl2, 1 mM MgCl2, 1 mM MnCl2 were incubated at room temperature for 1 h. In each case, 25 μl of WGA SPA beads (Amersham, 4 mg/ml) and 10 μl of echistatin ([…], Amersham, chloramine-T labelled) were then added. After 16 hours at room temperature, the samples were measured in a scintillation measuring apparatus (Wallac 1450).

BT20 = test: Growth inhibition test (MTT), cytotoxic action on tumour cell lines; format: cell-based; conditions: Homo sapiens, BT-20, 144 h, read-out: IC50 values of the cytotoxic action on tumour cell lines, BT20
Method: (§1) The human large intestine cell lines SW 480 and HT29 (ATCC No. CCL 228 and HTB38), the human breast cell lines MDA-MB 231, MCF-7 and BT20 (ATCC No. HTB-, 26, 22 and 23) and the mouse melanoma cell line B16F 10 (CRL 6475) were grown to confluence in Roux dishes in RPMI 1640 medium with addition of 10% FCS. They were then trypsinized and taken up in RPMI plus 10% FCS to a cell count of 50,000 cells or, for B16F10, 20,000 cells per ml. 100 μl of cell suspension/well were added to a 96 microwell plate and incubated at 37° C. for 1 day in a CO2 incubator. A further 100 μl of RPMI medium and 1 μl of DMSO were then added with the test substances. The growth was checked after day 6. For this, 25 μl of MTT solution (3-(4,5-dimethylthiazol-2-yl)-2,5-diphenyltetrazolium bromide) was added to each well at a starting concentration of 5 mg/ml of H2O. The plate was incubated at 37° C. for 5 hours in a CO2 incubator. The medium was then aspirated and 100 μl of i-propanol/well were added. After shaking with 100 μl of H2O for 30 min, the extinction was measured at 595-nm using a Multiplate Reader (BIO-RAD 3550-UV).
(§2) The cytostatic action is indicated in Table 2 as an IC50 value, in each case for the individual cell lines.

B16F10 = test: as above; format: cell-based; conditions: Mus musculus, B16-F10, 144 h, read-out: IC50 values of the cytotoxic action on tumour cell lines, B16F10
Method: as §1, §2

SW480 = test: as above; format: cell-based; conditions: Homo sapiens, SW480, 144 h, read-out: IC50 values of the cytotoxic action on tumour cell lines, SW480
Method: as §1, §2

HT 29 = test: as above; format: cell-based; conditions: Homo sapiens, HT-29, 144 h, read-out: IC50 values of the cytotoxic action on tumour cell lines, HT 29
Method: as §1, §2

MDA-MB 231 = test: as above; format: cell-based; conditions: Homo sapiens, MDA-MB-231, 144 h, read-out: IC50 values of the cytotoxic action on tumour cell lines, MDA-MB 231
Method: as §1, §2

MCF7 = test: as above; format: cell-based; conditions: Homo sapiens, MCF7, 144 h, read-out: IC50 values of the cytotoxic action on tumour cell lines, MCF7
Method: as §1, §2

[3] = Mus musculus, read-out: IC50, CSF-induced proliferation of hemopoietic stem cells, mouse bone marrow cells, recombinant murine GM-CSF, 7 days, colony count
[4] = αvβ3 purified from human A375 cells, labelled echistatin, read-out: IC50 values of the binding to the αvβ3 receptor

Row | Structure (SMILES) | IC50 [1, 3] | IC50 [2, 4] | IC50 (BT20) | IC50 (B16F10) | IC50 (SW480) | IC50 (HT 29) | IC50 (MDA-MB 231) | IC50 (MCF7) | IC50 [2] | IC50 ([1]; mouse bone marrow cells, recombinant murine GM-CSF, 7 days, colony count, read-out: IC50, CSF-induced proliferation of hemopoietic stem cells)
1 | CCCNC(=O)Nc1cccc(S(=O)(=O)Nc2cccc(C(CC(=O)O)NC(=O)CCCC(=O)NCC(=O)N[C@@H](CC(C)C)C(=O)O[C@]3(CC)C(=O)OCc4c3cc3n(c4=O)Cc4cc5ccccc5nc4-3)c2)c1 (stereo partly shown) [Example 3.20] | 100 ng/mL | 265 nM |  |  |  |  |  |  |  | 
2 | CCCNC(=O)Nc1cccc(S(=O)(=O)Nc2cccc(C(CC(=O)O)NC(=O)CCCC(=O)NCC(=O)N[C@@H](CC(C)C)C(=O)N[C@H](C(=O)O[C@]3(CC)C(=O)OCc4c3cc3n(c4=O)Cc4cc5ccccc5nc4-3)C(C)C)c2)c1 (stereo partly shown) [Example 3.22] | 6 ng/mL | 531 nM |  |  |  |  |  |  |  | 
3 | CC[C@@]1(OC(=O)[C@@H](NC(=O)CC[C@H](NC(=O)CC(NC(=O)CNC(=O)c2cccc(NC(=N)N)c2)c2ccccc2)C(=O)O)C(C)C)C(=O)OCc2c1cc1n(c2=O)Cc2cc3ccccc3nc2-1 (stereo partly shown) [Example 1.2] |  | 679 nM | 100 nM | 4000 nM | 600 nM | 500 nM | 20 nM | 60 nM |  | 
4 | CC[C@@]1(OC(=O)[C@@H](NC(=O)[C@H](CCCCNC(=O)OCC2c3ccccc3-c3ccccc32)NC(=O)Nc2cccc(-c3cccc(S(=O)(=O)NC(CC(=O)O)c4ccccc4)c3)c2)C(C)C)C(=O)OCc2c1cc1n(c2=O)Cc2cc3ccccc3nc2-1 (stereo partly shown) [Example 2.9] |  |  | 1500 nM | 300 nM | 1000 nM | 700 nM | 700 nM | 300 nM | 236 nM | 
5 | CC[C@@]1(OC(=O)[C@@H](NC(=O)[C@H](CCCCNC(=O)OCC2c3ccccc3-c3ccccc32)NC(=O)Nc2cccc(-c3ccc(S(=O)(=O)NC(CC(=O)O)c4ccccc4)cc3)c2)C(C)C)C(=O)OCc2c1cc1n(c2=O)Cc2cc3ccccc3nc2-1 (stereo partly shown) [Example 2.14] |  |  | 200 nM | 25 nM | 300 nM | 300 nM | 300 nM | 150 nM | 84 nM | 
6 | CC[C@@]1(OC(=O)[C@@H](NC(=O)[C@H](Cc2c[nH]cn2)NC(=S)Nc2ccc(S(=O)(=O)NC(CC(=O)O)c3cccc(NS(=O)(=O)c4cccc(NC(=N)N)c4)c3)cc2)C(C)C)C(=O)OCc2c1cc1n(c2=O)Cc2cc3ccccc3nc2-1 (stereo partly shown) [Example 3.2] |  |  | 200 nM | 1000 nM | 400 nM | 200 nM | 200 nM | 200 nM | 45 nM | 
7 | CC[C@@]1(OC(=O)[C@@H](NC(=O)[C@H](CCCCN)NC(=S)Nc2ccc(S(=O)(=O)NC(CC(=O)O)c3cccc(NS(=O)(=O)c4cccc(NC(=N)N)c4)c3)cc2)C(C)C)C(=O)OCc2c1cc1n(c2=O)Cc2cc3ccccc3nc2-1 (stereo partly shown) [Example 3.4] |  | 65 nM | 700 nM | 500 nM | 200 nM | 200 nM | 300 nM | 700 nM |  | 
8 | CC[C@@]1(OC(=O)[C@@H](NC(=O)[C@H](Cc2cnc[nH]2)NC(=S)Nc2cccc(C(CC(=O)O)NS(=O)(=O)c3cccc(-c4cccc(NC(=O)Nc5nc6ccccc6[nH]5)c4)c3)c2)C(C)C)C(=O)OCc2c1cc1n(c2=O)Cc2cc3ccccc3nc2-1 (stereo partly shown) [Example 3.6] |  |  | 1000 nM | 2000 nM | 400 nM | 300 nM | 400 nM | 400 nM | 22 nM | 
9 | CCCNC(=O)Nc1cccc(S(=O)(=O)Nc2cccc(C(CC(=O)O)NC(=S)Nc3cccc4nc5c(cc34)Cn3c-5cc4c(c3=O)COC(=O)[C@]4(O)CC)c2)c1 (stereo partly shown) [Example 3.16] |  | 51 nM | 700 nM | 1000 nM | 500 nM | 100 nM | 1000 nM | 300 nM |  | 
10 | CC[C@@]1(OC(=O)[C@@H](NC(=O)[C@H](CCCCNC(=O)OCC2c3ccccc3-c3ccccc32)NC(=O)Nc2cccc(-c3ccc(C[C@H](NS(=O)(=O)CC45CCC(CC4=O)C5(C)C)C(=O)O)cc3)c2)C(C)C)C(=O)OCc2c1cc1n(c2=O)Cc2cc3ccccc3nc2-1 (stereo partly shown) [Example 2.6] |  |  | 9000 nM | 10000 nM | 3000 nM | 3000 nM | 3000 nM | 5000 nM | 239 nM | 
11 | CCCNC(=O)Nc1cccc(S(=O)(=O)Nc2cccc(C(CC(=O)O)NS(=O)(=O)c3ccc(NC(=S)N[C@@H](Cc4c[nH]cn4)C(=O)N[C@H](C(=O)O[C@]4(CC)C(=O)OCc5c4cc4n(c5=O)Cc5cc6ccccc6nc5-4)C(C)C)cc3)c2)c1 (stereo partly shown) [Example 3.12] |  |  | 150 nM | 250 nM | 300 nM | 150 nM | 150 nM | 100 nM | 390 nM | 
12 | CC[C@@]1(OC(=O)CCC(=O)NC(CC(=O)O)c2cccc(NS(=O)(=O)c3cccc(NC(=N)N)c3)c2)C(=O)OCc2c1cc1n(c2=O)Cc2cc3ccccc3nc2-1 (stereo partly shown) [Example 3.18] |  |  | 900 nM | 1000 nM | 300 nM | 180 nM | 500 nM | 600 nM | 79 nM | 
13 | CC[C@@]1(OC(=O)[C@@H](NC(=O)[C@H](Cc2cnc[nH]2)NC(=S)Nc2ccc(CC(NS(=O)(=O)c3cc(-c4cccc(NC(=O)Nc5nc6ccccc6[nH]5)c4)ccc3OC)C(=O)O)cc2)C(C)C)C(=O)OCc2c1cc1n(c2=O)Cc2cc3ccccc3nc2-1 (stereo partly shown) [Example 3.7] |  |  | 600 nM | 800 nM | 400 nM | 200 nM | 300 nM | 400 nM | 111 nM | 
14 | CC[C@@]1(OC(=O)[C@@H](NC(=O)C(Cc2c[nH]cn2)NC(=S)Nc2ccc(CC(NS(=O)(=O)c3ccc(-c4cccc(NC(=O)Nc5nc6ccccc6[nH]5)c4)cc3)C(=O)O)cc2)C(C)C)C(=O)OCc2c1cc1n(c2=O)Cc2cc3ccccc3nc2-1 (stereo partly shown) [Example 3.11] |  |  | 500 nM | 600 nM | 600 nM | 300 nM | 400 nM | 250 nM | 97 nM | 
15 | CC[C@@]1(OC(=O)[C@@H](NC(=O)[C@H](Cc2cnc[nH]2)NC(=O)Nc2cccc(-c3ccc(C[C@H](NS(=O)(=O)CC45CCC(CC4=O)C5(C)C)C(=O)O)cc3)c2)C(C)C)C(=O)OCc2c1cc1n(c2=O)Cc2cc3ccccc3nc2-1 (stereo partly shown) [Example 2.7] |  |  | 5000 nM | 3000 nM | 900 nM | 600 nM | 900 nM | 800 nM | 86 nM | 
16 | CC[C@@]1(O)C(=O)OCc2c1cc1n(c2=O)Cc2cc3ccccc3nc2-1 [Camptothecin, 20(S)-Camptothecin, reference compound] |  |  |  |  |  |  |  |  |  | 0.3 ng/mL
17 | CC[C@@]1(OC(=O)[C@@H](NC(=O)[C@H](Cc2c[nH]cn2)NC(=O)Nc2cccc(-c3cccc(S(=O)(=O)NC(CC(=O)O)c4ccccc4)c3)c2)C(C)C)C(=O)OCc2c1cc1n(c2=O)Cc2cc3ccccc3nc2-1 (stereo partly shown) [Example 2.10] |  | 101 nM | 1000 nM | 2000 nM | 1000 nM | 700 nM | 400 nM | 1500 nM |  | 
